The results in this text go back to patent US20140065237A1, “BIOLOGICALLY ACTIVE FOOD ADDITIVE FOR THE PROPHYLAXIS OF ERECTILE DYSFUNCTION IN MEN” (priority 2011, published 2014).

For the test, the system named is men with the diagnosis of erectile dysfunction and chronic prostatitis. Put plainly: Clinical study of the BAA versus its single components (IIEF questionnaire, patient diaries), medical center "Secrets of Longevity". In kind it is in vivo, human. The following applies: 2 tablets twice a day. How it is done: For the prevention of erectile dysfunction, the BAA in compound of L-Arginine—250 mg, drone brood—50 mg is taken by 2 tablets two times per day during one month out of meals. An interval during the intake is one month. […] The study included […] with the diagnosis of erectile dysfunction and chronic prostatitis, at the age from 30 to 50 years old (average age is 43). The duration of erectile dysfunction was from 6 months to 3 years (average duration is one year). A consent was received from all males participated in the study.
The experimental group (10 patients) was appointed to the proposed agent by 2 tablets twice a day in the morning hours. The 1-st experimental group (10 patients) was administered L-Arginine—250 mg, 2 tablets 2 times per day in the morning hours.
The 2-nd experimental group (10 patients) was administered drone brood—50 mg, 2 tablets 2 times per day in the morning hours. Patients' examination involved the checkup, collection of complains in accordance with the symptoms scale 1P88, and questionnaire of International Index of Erectile Function (IIEF), with consideration of objective factors: ultrasound investigation of prostate gland, clinical blood analysis, urine test, including the results of prostate gland palpation. Patients' examination took place before and after the agent prescription.
An efficiency of the claimed agent was evaluated by the change of IIEF's exponents. Within a week, prior to and during the course of agent intake, patients were keeping a diary of disease estimation, and they recorded the frequency and degree of sexual attraction, valuation of erection, frequency of sexual intercourse and their sensations in each case.

For the molecule `N=C(N)NCCC[C@H](N)C(=O)O` [L-Arginine], the “full sexual relations provided or not” value was “not providing the full sexual relations”. In addition, the “effect starts within ... after taking of the agent” value (irrespective of age and extent of sexual disorder) is 2 to 3 h. For the setting “10 patients per group”, the erectile function is reported as 20%; the “feeling of orgasm, change of sensations” value is 20%; the “number of ejaculations has grown up (share of cases)” value was found to be 20%; the overall satisfaction is 20%. Also, for the setting “10 patients per group”, the “refractory period after the emission of seminal fluid has not changed (share of patients)” value stood at 100%, the sexual intercourse satisfaction is listed as 20% and the “strengthening of sexual attraction (libido) recorded (share of cases)” value is given as 100%.
